Source: patent US20060148838A1, “Novel pyrrolodihydroisoquinolines useful in the treatment of cancer” (Altana Pharma AG, priority 2003, published 2006)

What was measured:
[1] = test system: NCl-H460 non-small cell lung cancer cells; assay: Alamar Blue cell viability assay, anti-proliferative/cytotoxic activity; format: cell-based; conditions: 72 hours incubation, one range stated for all listed Examples, read-out: −log IC50 NCl-H460 (converted)
Experimental: The anti-proliferative/cytotoxic activity of the compounds described herein, can be tested on NCl-H460 non-small cell lung cancer cells using the Alamar Blue cell viability assay (described in O'Brien et al. Eur J Biochem 267, 5421-5426, 2000). The compounds are dissolved as 20 mM solutions in dimethylsulfoxide (DMSO) and subsequently diluted in semi-logarithmic steps. DMSO dilutions are further diluted 1:100 into Dulbecco's modified Eagle's medium (DMEM) containing 10% fetal calf serum to a final concentration twice as much as the final concentration in the test. NCl-460 cells are seeded into 96 well flat bottom plates at a density of 4000 cells per well in a volume of 50 μl per well. 24 hours after seeding the 50 μl each of the compound dilutions in DMEM medium are added into each well of the 96 Well plate. Each compound dilution is tested as quadruplicates. Wells containing untreated control cells are filled with 50 μl DMEM medium containing 1% DMSO. The cells are then incubated with the substances for 72 hours at 37° C. In a humified atmosphere containing 5% carbon dioxide. To determine the viability of the cells, 10 μl of an Alamar Blue solution (Biosource) are added and the fluorescence is measured at an extinction of 544 nm and an emission of 590 nm. For the calculation of cell viability the emission value from untreated cells is set to 100% viability and the emission rates of treated cells are set in relation to the values of untreated cells. Viabilities are expressed as % values.
The corresponding IC50 values of the compounds for anti-proliferative/cytotoxic activity are determined from the concentration-effect curves.
Representative advantageous IC50 values for anti-proliferation/cytotoxicity determined for the compounds mentioned and numbered as Examples in the examples above follow from the following table A, in which the numbers of the compound correspond to the numbers of the examples.

Row | melting point | SMILES | IC50 [1]
1 | 104 to 106 °C | CCOC(=O)c1c(-c2cc(C)c(O)c(C)c2)c(C)n2c1-c1cc(N)c(OC)cc1CC2 [Example 25, 9-Amino-2-(4-hydroxy-3,5-dimethyl-phenyl)-8-methoxy-3-methyl-5,6-dihydro-pyrrolo[2,1-a]isoquinoline-1-carboxylic acid ethyl ester] | 398 to 3160 nM
2 | 273 to 276 °C | COc1cc2c(cc1OC)-c1c(C(=O)NC3CCCCC3)c(-c3cc(C)c(O)c(C)c3)c(C)n1CC2 [Example 28, 2-(4-Hydroxy-3,5-dimethyl-phenyl)-8,9-dimethoxy-3-methyl-5,6-dihydro-pyrrolo[2,1-a]isoquinoline-1-carboxylic acid cyclohexyl amide] | 398 to 3160 nM
3 | 271 to 273 °C | COc1cc2c(cc1OC)-c1c(C(=O)Nc3ccccc3)c(-c3cc(C)c(O)c(C)c3)c(C)n1CC2 [Example 34, 2-(4-Hydroxy-3,5-dimethyl-phenyl)-8,9-dimethoxy-3-methyl-5,6-dihydro-pyrrolo[2,1-a]isoquinoline-1-carboxylic acid phenylamide] | 398 to 3160 nM
4 | 238 to 240 °C | CCC(C)NC(=O)c1c(-c2cc(C)c(O)c(C)c2)c(C)n2c1-c1cc(OC)c(OC)cc1CC2 (centres unmarked) [Example 36, 2-(4-Hydroxy-3,5-dimethyl-phenyl)-8,9-dimethoxy-3-methyl-5,6-dihydro-pyrrolo[2,1-a]isoquinoline-1-carboxylic acid sec-butylamide] | 398 to 3160 nM
